Consider two compounds from publication PMC4786642, “Catch-bond mechanism of the bacterial adhesin FimH” (Nature Communications, 2016).

SMILES strings stand for the structures. Where two headings read alike, the source gives them in different places.

Experiment [1] has as its target T1, FimHL^F18 (Escherichia coli, UniProt P08191, N91S/S99N/V48A). Kind of experiment: Equilibrium titration of FimHL with GN-FP-4 (fluorescence). Format: binding, E. coli strain F18. Details: The isolated lectin domains (residues 1–159) of both FimH variants; made in house; host or cells: E. coli HM125 (periplasm), plasmid pfimHL^F18. How it is done:
(§1) The concentration of GN-FP-4 was kept constant at 1.0 or 2.0 nM and the concentration of FimHL was varied between 0 and 10 nM. The samples were equilibrated overnight, and their fluorescence intensities at 520 nm were recorded for 30 s and averaged. The experimental data were fitted according to equation (2).

Experiment [2] has as its target T2, FimHL^K12 (Escherichia coli, UniProt P08191). The experiment is described as above. Format: binding, E. coli strain K12. Set-up: The isolated lectin domains (residues 1–159) of both FimH variants; made in house; host or cells: E. coli HM125 (periplasm). Here is the method: as §1
Experiment [3] has as its target T3, FimH^K12·DsG (Escherichia coli, UniProt P08191).
T3 construct: those of the corresponding full-length FimH·DsG complexes; made in house; host or cells: E. coli HM125 (periplasm); DsG peptide synthetic, from JPT
It counts as binding, E. coli strain K12. To be noted: for Kd: HM, FimH^K12·DsG. Here is the method:
A constant FimH·DsG concentration of 1 or 2 μM was used. […] The fluorescence traces were globally fitted with Dynafit[59] according to a second-order binding and first-order dissociation reaction.

For experiment [4], the target named is T1, FimHL^F18.
Experiment [5] deals with T2, FimHL^K12.
Experiment [6] concerns FimH^F18-piliated E. coli. Description: Cell tracking on mannose-BSA-coated surfaces, static conditions. Format: cell-based. Particulars: in the presence of 200 μM HM; FimH^F18-piliated bacteria. The text has this: (§2) The E. coli KB18 strain[67] was kindly provided by Professor Evgeni Sokurenko and served as host for the generation of recombinant strains. KB18 contains the pPKL114 plasmid, which encodes the whole fim operon with a translational stop linker upstream of the fimH gene. KB18 was co-transformed with the pGB2-24 plasmid, which was isolated from the ELT115 strain and encodes fimH^J96 (kindly provided by Professor Evgeni Sokurenko). Single-nucleotide point mutations were introduced in fimH^J96 using overlap extension PCR following standard molecular techniques to obtain fimH^F18 and fimH^F18-Ala188Asp. The PCR products were cloned into pGB2-24 by the ApaLI and SphI sites, and KB18 was transformed with the resulting plasmid. […]
(§3) Cell tracking was carried out at room temperature under static conditions. […] Time-lapse movies were recorded with a × 20 phase contrast objective using a CMOS digital camera (The Imaging Source Europe, Bremen, Germany) mounted on a Nikon Ti Eclipse inverted microscope and using the NIS Elements Basic Research software (Nikon, Zurich, Switzerland). […] Five to seven independent movies were recorded for each experimental set-up: FimH^F18 or FimH^F18-Ala188Asp on 1M-BSA-coated dishes and FimH^F18 and FimH^F18-Ala188Asp on BSA-coated cell culture dishes. […]

Experiment [7] relates to FimH^F18-Ala188Asp-piliated E. coli. The experiment is described as above. To be noted: in the presence of 200 μM HM; FimH^F18-Ala188Asp-piliated bacteria. Format: cell-based.
Excerpt: as §2, §3

For experiment [8], the target named is T1, FimHL^F18. Particulars: HM.
In experiment [9] the target is T4, FimH^F18·DsG (Escherichia coli, UniProt P08191, N91S/S99N/V48A). Particulars: for Kd: HM, FimH^F18·DsG.
T4 sequence (P08191 22-300 V48A/N91S/S99N, other chains not shown): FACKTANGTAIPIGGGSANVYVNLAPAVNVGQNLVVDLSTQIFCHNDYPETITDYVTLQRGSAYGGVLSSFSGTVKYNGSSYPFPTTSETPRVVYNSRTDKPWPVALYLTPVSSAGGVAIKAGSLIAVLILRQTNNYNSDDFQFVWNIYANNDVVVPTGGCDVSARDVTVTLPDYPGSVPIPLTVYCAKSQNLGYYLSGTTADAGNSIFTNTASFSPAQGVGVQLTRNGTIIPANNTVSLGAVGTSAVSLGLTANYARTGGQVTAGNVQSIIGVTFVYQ
Experiment [10] concerns the target T4, FimH^F18·DsG. Particulars: HM; for Kd: FimH^F18·DsG. Here is the method: (§4) Measurements were performed with a stirred 1 × 0.4-cm quartz cuvette. […] The samples were equilibrated overnight, and their fluorescence intensities were recorded for 30 s and averaged.
For experiment [11], the system named is E. coli piliated with FimH^F18 or FimH^F18-Ala188Asp. Kind of experiment: Cell tracking on mannose-BSA-coated surfaces, static conditions (strain not separated). It counts as cell-based. An excerpt:
The E. coli KB18 strain[67] was kindly provided by Professor Evgeni Sokurenko and served as host for the generation of recombinant strains. KB18 contains the pPKL114 plasmid, which encodes the whole fim operon with a translational stop linker upstream of the fimH gene. KB18 was co-transformed with the pGB2-24 plasmid, which was isolated from the ELT115 strain and encodes fimH^J96 (kindly provided by Professor Evgeni Sokurenko). Single-nucleotide point mutations were introduced in fimH^J96 using overlap extension PCR following standard molecular techniques to obtain fimH^F18 and fimH^F18-Ala188Asp. The PCR products were cloned into pGB2-24 by the ApaLI and SphI sites, and KB18 was transformed with the resulting plasmid.
E. coli strains were grown from frozen stocks in LB medium supplemented with antibiotics (100 μg ml^−1 ampicillin and 25 μg ml^−1 chloramphenicol) until late log phase (OD600 of 1.0–1.2) and diluted to an OD600 of 0.01 before movie acquisition.
Cell culture dishes (35 mm, Corning Inc., Corning, NY) were incubated with 50 μl of 50 μg ml^−1 1M-BSA in 0.02 M bicarbonate buffer for 75 min at 37 °C. The dishes were then washed three times and quenched with 0.1% PBS–BSA to remove unbound 1M-BSA and block remaining sites on the plastic surface to prevent nonspecific binding of bacteria. Controls were prepared by treating cell culture dishes with 0.1% PBS–BSA only. The bacterial suspension was added to the cell culture dishes for microscopy studies.
Cell tracking was carried out at room temperature under static conditions. A bacterial suspension of 50 μl in the late logarithmic growth phase was placed onto the cell culture dishes (diluted to OD600 of 0.01), and a cover slide was placed on top. The delay between sample placement and start of the movie acquisition was about 1 min. Time-lapse movies were recorded with a × 20 phase contrast objective using a CMOS digital camera (The Imaging Source Europe, Bremen, Germany) mounted on a Nikon Ti Eclipse inverted microscope and using the NIS Elements Basic Research software (Nikon, Zurich, Switzerland). Phase contrast images in an ∼5-μm-thick surface layer were taken at four to five frames per second over 5 min. The dead time of movie acquisition was ∼1 min. The resulting images were segmented by creating a projection of the average intensities over all frames to remove the background and by subsequent thresholding using the Maximum Entropy method in Fiji[68] to obtain binary images (examples shown in Supplementary Movies 1 and 2). […] Five to seven independent movies were recorded for each experimental set-up: FimH^F18 or FimH^F18-Ala188Asp on 1M-BSA-coated dishes and FimH^F18 and FimH^F18-Ala188Asp on BSA-coated cell culture dishes. […]

Experiment [12] has as its target T2, FimHL^K12. Particulars: HM.
The target of experiment [13] is FimH^K12·DsG. It counts as binding, E. coli strain K12. To be noted: HM, FimH variant K12. Here is the method: as §4
For experiment [14], the target named is T3, FimH^K12·DsG. Format: binding, E. coli strain K12. To be noted: HM, FimH^K12·DsG. How it is done:
as §4

T1 sequence (P08191 22-180 V48A/N91S/S99N): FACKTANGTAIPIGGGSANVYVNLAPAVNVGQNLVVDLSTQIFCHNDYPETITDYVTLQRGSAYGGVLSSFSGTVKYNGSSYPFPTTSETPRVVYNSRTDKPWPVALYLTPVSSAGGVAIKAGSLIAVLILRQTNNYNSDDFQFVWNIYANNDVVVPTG
T2 sequence (P08191 22-180): as the sequence (P08191 22-180 V48A/N91S/S99N) above, with A27V, S70N, N78S counted along it
T3 sequence (P08191 22-300, other chains not shown): as the sequence (P08191 22-300 V48A/N91S/S99N, other chains not shown) above, with A27V, S70N, N78S counted along it

With `O=C(NCCNC(=S)Nc1ccc2c(c1)C(=O)OC21c2ccc(O)cc2Oc2cc(O)ccc21)c1ccc(-c2ccc(O[C@H]3O[C@H](CO)[C@@H](O)[C@H](O)[C@@H]3O)c(Cl)c2)cc1` [GN-FP-4, 3′-Chloro-N-(2-(3-(3′,6′-dihydroxy-3-oxo-3H-spiro[isobenzofuran-1,9′-xanthen]-5-yl)-thioureido)ethyl)-4′-(α-D-mannopyranosyloxy)-biphenyl-4-carboxamide], the Kd at FimHL^F18 [1] was found to be 0.00018 µM; at FimHL^K12 [2] (FimHL^K12, equilibrium fluorescence titration, read-out: Kd), 70 pM; on FimHL^K12 [2] (FimHL^K12, pH 7.4, 25 °C, read-out: Kd of GN-FP-4 binding) it was 70 pM. Besides, the “fold higher affinity compared to HM” value at FimHL^K12 [2] (FimHL^K12 and FimHL^F18) stood at 16 fold.
As for `CCCCCCCO[C@H]1O[C@H](CO)[C@@H](O)[C@H](O)[C@@H]1O` [HM, n-heptyl α-D-mannoside], the “kon (M^−1 s^−1)” value at FimH^K12·DsG [3] (HM binding to FimH^K12·DsG, pH 7.4, 25 °C) was 5.0±0.1 × 10^6 M^−1 s^−1; at FimHL^F18 [4] (HM binding to FimHL^F18, pH 7.4, 25 °C, calculated with koff and Kd), 1.2±0.4 × 10^5(d) M^−1 s^−1; on FimHL^K12 [5] (HM binding to FimHL^K12, pH 7.4, 25 °C, calculated with koff and Kd) it was 1.8±0.6 × 10^5(d) M^−1 s^−1; on FimH^F18·DsG [9] (HM binding to FimH^F18·DsG, pH 7.4, 25 °C) it was 4.9±0.1 × 10^6 M^−1 s^−1. Besides, the “koff (s^−1)” value on FimH^K12·DsG [3] (HM dissociation from FimH^K12·DsG, pH 7.4, 25 °C) was 2.2±0.1 × 10^1 s^−1; on FimHL^F18 [4] (HM dissociation from FimHL^F18, pH 7.4, 25 °C) it was 3.5±0.8 × 10^−4 s^−1; at FimHL^K12 [5] (HM dissociation from FimHL^K12, pH 7.4, 25 °C), 2.0±0.4 × 10^−4 s^−1; on FimH^F18·DsG [9] (HM dissociation from FimH^F18·DsG, pH 7.4, 25 °C), 5.8±0.1 × 10^1 s^−1. The Kd was found to be 4.3 µM at FimH^K12·DsG [3] (pH 7.4, 25 °C, ratio of rate constants, read-out: koff/kon); 4.2 µM at FimH^K12·DsG [3] (pH 7.4, 25 °C, stopped-flow amplitudes, read-out: Kd (amplitude analysis; M)); 4.2 ± 0.3 µM at FimH^K12·DsG [3] (read-out: Kd (amplitudes of stopped-flow reactions)); 0.003 µM on FimHL^F18 [8] (FimHL^F18, displacement of GN-FP-4); 0.003 µM on FimHL^F18 [8] (read-out: Kd (equilibrium titration; M), FimHL^F18, pH 7.4, 25 °C, from competition equilibria with GN-FP-4); 12 µM on FimH^F18·DsG [9] (read-out: Kd (amplitude analysis; M), pH 7.4, 25 °C, stopped-flow amplitudes). The Kd on FimH^F18·DsG [9] (read-out: Kd (amplitudes of stopped-flow reactions), amplitude analysis) was determined as 12 ± 1 µM; at FimH^F18·DsG [9] (read-out: koff/kon, pH 7.4, 25 °C, ratio of rate constants) it was 12 µM; at FimH^F18·DsG [10] (read-out: Kd (equilibrium titration; M), pH 7.4, 25 °C), 9.9 µM; on FimH^F18·DsG [10] (read-out: equilibrium dissociation constant (Kd), equilibrium titration) it was 9.9 µM; on FimHL^K12 [12] (FimHL^K12, displacement of GN-FP-4), 0.0011 µM; at FimHL^K12 [12] (read-out: Kd (equilibrium titration; M), FimHL^K12, pH 7.4, 25 °C, from competition equilibria with GN-FP-4), 0.0011 µM. Moreover, the Kd on FimH^K12·DsG [14] (equilibrium titration, read-out: equilibrium dissociation constant (Kd)) is 3.6 µM; at FimH^K12·DsG [14] (pH 7.4, 25 °C, read-out: Kd (equilibrium titration; M)), 3.6 µM. The “mean velocity on 1M-BSA” value in [6] stood at 6.5 μm s^−1; in experiment [7], 5.9 μm s^−1. In addition, the “Kd (FimH·DsG)/Kd (FimHL)” value at FimH^F18·DsG [10] (FimH variant F18) and on FimH^K12·DsG [13] was 3,300 each time. The “reduction of permanent attachment to 1M-BSA” value in experiment [11] (in the presence of 200 μM HM) was 85%. The “reduction of transient attachment to 1M-BSA” value in experiment [11] (in the presence of 200 μM HM) turned out to be 75%. Further, in experiment [11] (in the presence of HM), the “transient and permanent attachment to 1M-BSA” value is reported as “significantly reduced”. Further, the “bacterial velocity on 1M-BSA” value in [11] (upon addition of 100 µM HM) is recorded as “increased”.
